Data from patent US7223764B2, “2,4-bis (trifluoroethoxy)pyridine compound and drug containing the compound” (Kowa Co., Ltd., priority 2003, dated 2007).
In brackets after ≈: the same amount, converted by molar mass. Where a name gives a salt, the structure may show the parent alone.

Tests used:
[1] = Test on stability against metabolism in human liver microsome; assay type: in vitro ADME; settings: 30 minutes after initiation of reaction, 37° C., FIG. 1
Method: In accordance with Table 2 described below, an NRS (NADPH regenerating system) solution and 16% human serum albumin were added to 0.1 mol/L phosphate buffer (pH 7.4), and a solution of a test compound (100 μM) in acetonitrile (0.01 mL) was added thereto. The mixture was pre-incubated for five minutes in a warm bath at 37° C., and human liver microsome (POOLED HUMAN LIVER MICROSOMES, Lot. No. 20, product of GENTEST) was added thereto, followed by allowing reaction for 30 minutes in a warm bath at 37° C. An aliquot (0.25 mL) was collected from the reaction mixture 0 and 30 minutes after the start of reaction, followed by extraction*. The amount of the test compound was determined through HPLC. Residual percentage of the unchanged compound after 30 minutes was calculated based on the following equation: peak area after 30 minutes/peak area at 0 minute)×100.
To each sample, gkycine buffer (pH 10, 1.0 mL), an internal standard substance (0.1 mL), and tert-butyl methyl ether (5.0 mL) were added. The mixture was shaken for ten minutes and then centrifuged at 2,500 rpm […], and the […] was collected.

ACAT = target: T1, ACAT (Mus musculus, UniProt Q61263); assay: Test for ACAT inhibitory activity in J774A cells (cholesterol ester production); assay type: cell-based
T1 construct: endogenous in cells; host or cells: J774 (J774A) cells
T1 sequence (Q61263 1-540): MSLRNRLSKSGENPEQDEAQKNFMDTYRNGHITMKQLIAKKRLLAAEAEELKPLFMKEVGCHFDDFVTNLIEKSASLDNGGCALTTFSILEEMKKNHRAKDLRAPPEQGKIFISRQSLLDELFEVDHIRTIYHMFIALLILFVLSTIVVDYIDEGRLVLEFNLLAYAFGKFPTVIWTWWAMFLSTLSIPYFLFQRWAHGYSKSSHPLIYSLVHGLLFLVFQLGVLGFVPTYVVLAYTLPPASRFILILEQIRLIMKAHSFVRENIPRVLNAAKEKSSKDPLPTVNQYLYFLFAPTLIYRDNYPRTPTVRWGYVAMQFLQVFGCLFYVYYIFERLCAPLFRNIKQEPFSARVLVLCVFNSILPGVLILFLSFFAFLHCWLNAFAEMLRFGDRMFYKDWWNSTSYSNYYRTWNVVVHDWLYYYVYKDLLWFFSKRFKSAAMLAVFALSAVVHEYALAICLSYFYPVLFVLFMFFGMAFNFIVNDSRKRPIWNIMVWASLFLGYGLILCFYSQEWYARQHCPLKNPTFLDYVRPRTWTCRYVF
Method: J774 cells (2×10^5 cells/well) were seeded on a 24-well plate and incubated for 24 hours in DMEM (10% FBS, 500 μL). After replacement with a new medium, 25-hydroxycholesterol (10 μg/mL) and ACAT inhibitor (final concentration: 0, 10^−9 to 10^−5 mol/L) were added thereto, followed by incubation for 18 hours. After washing with 0.9% sodium chloride, the lipid was extracted with hexane-isopropanol (3:2) (250 μL) and then with hexane-isopropanol (3:2) (250 μL) again. The extracts were combined, and the solvent was removed. The thus-obtained cholesterol ester (CE) was quantified through the fluorescent enzyme assay. The cells from which the lipid had been extracted were subjected to protein assay (micro BCA assay), to thereby determine the amount of CE per mg of protein.

[2] = Oral administration test in rats (plasma levels); assay type: in vivo, rat; settings: 10 mg/kg p.o.
Method: Each test compound was dissolved in a 0.01N hydrochloric acid solution, and the solution was perorally administered to male or female rats at 10 mg/5 mL/kg. Blood samples (0.25 mL each) were collected 30, 60, 120, 180, 240, and 360 minutes after administration. The collected blood samples were centrifuged for five minutes at 4° C. and 9,000 g, to thereby prepare plasma samples. The plasma samples were stored at −30° C. before measurement. The samples were subjected to the extraction procedure*, and plasma levels of the test compound were determined through LC/MS/MS.
(§1) The extraction was performed in a manner similar to that of the test on stability against metabolism in human liver microsome.

[3] = Solubility test (Japanese Pharmacopoeia Solution I); assay type: physicochemical; settings: simulated gastric fluid, kinetic from dmso stock, pH 1.2, filtrate through 0.2-μm filter, HPLC
Method: Each test compound was dissolved in acetonitrile to form a 100 μM solution, and the solution was added to Japanese Pharmacopoeia Solution I to form a 1000 ng/mL solution. The resultant solution was stirred for ten minutes, and an aliquot (1 mL) was placed into an injection tube and then passed through a 0.2-μm filter (HLC-DISK 13, water/solvent, Kanto Kagaku Kabushiki-kaisya). The filtrate (0.5 mL) was subjected to the extraction procedure*, and the amount of the test compound was determined through HPLC.
as §1

| residual percentage of the unchanged compound [1] [%] | melting point [°C] | IC50 (ACAT) [nM] | AUC ([2]; Female rat) [ng·h/mL] | Cmax ([2]; Female rat) [ng/mL] | AUC ([2]; Male rat) [ng·h/mL] | Cmax ([2]; Male rat) [ng/mL] | solubility at 10 min [3] [µg/mL] | SMILES |
| --- | --- | --- | --- | --- | --- | --- | --- | --- |
| 27 | 182 to 182.7 | 87 | 5100 | 3410 | 367 | 418 | 0.562 (≈ 0.9 µM) | Cc1cc(OCC(F)(F)F)c(NC(=O)CN2CCN(CCSc3nc4ccc(F)cc4[nH]3)CC2)c(OCC(F)(F)F)n1 [Compound (1a), 2-[4-[2-(5-fluorobenzimidazol-2-ylthio)ethyl]piperazin-1-yl]-N-[2,4-bis(2,2,2-trifluoroethoxy)-6-methylpyridin-3-yl]acetamide] |
| 62 | 191 to 192 | 75 | 6550 | 2840 | 917 | 614 | 0.422 (≈ 0.657 µM) | Cc1cc(OCC(F)(F)F)c(NC(=O)CN2CCN(CCSc3nc4cc(F)c(F)cc4[nH]3)CC2)c(OCC(F)(F)F)n1 [Compound (1b), 2-[4-[2-(5,6-difluorobenzimidazol-2-ylthio)ethyl]piperazin-1-yl]-N-[2,4-bis(2,2,2-trifluoroethoxy)-6-methylpyridin-3-yl]acetamide] |
| 16 | – | – | 2470 | 1170 | 200 | 207 | – | CSc1cc(C)nc(SC)c1NC(=O)CN1CCN(CCSc2nc3ccccc3[nH]2)CC1 [Compound (B).HCl, reference compound] |
